One assay relates to 695427-040-R-J1-PDC complex spheroid viability. The assay is described as follows: Anticancer human tumor 695427-040-R-J1-PDC patient-derived colon adenocarcinoma cell line growth inhibition [POLQ]. The note with it: second compound 0.316 µM; first compound 1 µM; active compounds read low. The gist of the method: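 Three-cell-type spheroids modelling solid tumor plus stroma served as the readout system; POL inhibitors were tested individually and in combination, concentration ranges set by clinical Cmax where known.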
A word on the viability, T/C: it is the ratio of treated to control. In the case of `C=CC(=O)N1CCN(c2nc(=O)n(-c3c(C)ccnc3C(C)C)c3nc(-c4c(O)cccc4F)c(F)cc23)C(C)C1` (stereo unspecified) + Nc1ccc(C#CCN(C(=O)Cc2ncc(C(F)(F)F)cc2C(F)(F)F)c2ccc(F)cc2)nn1, the viability, T/C is 105%.
Turning to `CC(C)n1c(=O)n(C)c2cnc3cc(F)c(-c4ccc(OCCCN5CCCCC5)nc4)cc3c21` + Nc1ccc(C#CCN(C(=O)Cc2ncc(C(F)(F)F)cc2C(F)(F)F)c2ccc(F)cc2)nn1, the viability, T/C was 110%.
In the case of `CCc1cc2c(N3CCc4c(cc(Cn5ccnc5)cc4-c4cn(C)nc4C(F)(F)F)C3=O)cc(C)nc2c(OC)n1` + Nc1ccc(C#CCN(C(=O)Cc2ncc(C(F)(F)F)cc2C(F)(F)F)c2ccc(F)cc2)nn1, the viability, T/C is 101%.
For `CCc1cc2c(N3CCc4c(cc(Cn5ccnc5)cc4-c4cn(C)nc4C(F)(F)F)C3=O)ccnc2c(OC)n1` + Nc1ccc(C#CCN(C(=O)Cc2ncc(C(F)(F)F)cc2C(F)(F)F)c2ccc(F)cc2)nn1, the viability, T/C is 104%.
In the case of `COc1cc2cc(C(=O)CCC(=O)O)sc2cc1OC` + Nc1ccc(C#CCN(C(=O)Cc2ncc(C(F)(F)F)cc2C(F)(F)F)c2ccc(F)cc2)nn1, the viability, T/C was 109%.

The assay is the same for the next values; noted with them: second compound 0.316 µM; first compound 3.16 µM; active compounds read low.
Turning to `C=CC(=O)N1CCN(c2nc(=O)n(-c3c(C)ccnc3C(C)C)c3nc(-c4c(O)cccc4F)c(F)cc23)C(C)C1` (stereo unspecified) + Nc1ccc(C#CCN(C(=O)Cc2ncc(C(F)(F)F)cc2C(F)(F)F)c2ccc(F)cc2)nn1, the viability, T/C is 120%.
As to `CC(C)n1c(=O)n(C)c2cnc3cc(F)c(-c4ccc(OCCCN5CCCCC5)nc4)cc3c21` + Nc1ccc(C#CCN(C(=O)Cc2ncc(C(F)(F)F)cc2C(F)(F)F)c2ccc(F)cc2)nn1, the viability, T/C was 106%.
For `CCc1cc2c(N3CCc4c(cc(Cn5ccnc5)cc4-c4cn(C)nc4C(F)(F)F)C3=O)cc(C)nc2c(OC)n1` + Nc1ccc(C#CCN(C(=O)Cc2ncc(C(F)(F)F)cc2C(F)(F)F)c2ccc(F)cc2)nn1, the viability, T/C was 113%.
Consider `CCc1cc2c(N3CCc4c(cc(Cn5ccnc5)cc4-c4cn(C)nc4C(F)(F)F)C3=O)ccnc2c(OC)n1` + Nc1ccc(C#CCN(C(=O)Cc2ncc(C(F)(F)F)cc2C(F)(F)F)c2ccc(F)cc2)nn1, for which the viability, T/C is 103%.
Regarding `COc1cc2cc(C(=O)CCC(=O)O)sc2cc1OC` + Nc1ccc(C#CCN(C(=O)Cc2ncc(C(F)(F)F)cc2C(F)(F)F)c2ccc(F)cc2)nn1, the viability, T/C is 105%.

Still in this assay, the particulars now being: second compound 0.316 µM; first compound 10 µM; active compounds read low.
Regarding `C=CC(=O)N1CCN(c2nc(=O)n(-c3c(C)ccnc3C(C)C)c3nc(-c4c(O)cccc4F)c(F)cc23)C(C)C1` (stereo unspecified) + Nc1ccc(C#CCN(C(=O)Cc2ncc(C(F)(F)F)cc2C(F)(F)F)c2ccc(F)cc2)nn1, the viability, T/C was 95.3%.
In the case of `CC(C)n1c(=O)n(C)c2cnc3cc(F)c(-c4ccc(OCCCN5CCCCC5)nc4)cc3c21` + Nc1ccc(C#CCN(C(=O)Cc2ncc(C(F)(F)F)cc2C(F)(F)F)c2ccc(F)cc2)nn1, the viability, T/C is 91.8%.
Regarding `CCc1cc2c(N3CCc4c(cc(Cn5ccnc5)cc4-c4cn(C)nc4C(F)(F)F)C3=O)cc(C)nc2c(OC)n1` + Nc1ccc(C#CCN(C(=O)Cc2ncc(C(F)(F)F)cc2C(F)(F)F)c2ccc(F)cc2)nn1, the viability, T/C is 98.8%.
Same read-out and setting: next, `CCc1cc2c(N3CCc4c(cc(Cn5ccnc5)cc4-c4cn(C)nc4C(F)(F)F)C3=O)ccnc2c(OC)n1` + Nc1ccc(C#CCN(C(=O)Cc2ncc(C(F)(F)F)cc2C(F)(F)F)c2ccc(F)cc2)nn1: 87.6%; `COc1cc2cc(C(=O)CCC(=O)O)sc2cc1OC` + Nc1ccc(C#CCN(C(=O)Cc2ncc(C(F)(F)F)cc2C(F)(F)F)c2ccc(F)cc2)nn1: 98.9%.

The assay is the same for the next values; noted with them: second compound 1 µM; first compound 0.0316 µM; active compounds read low.
Regarding `C=CC(=O)N1CCN(c2nc(=O)n(-c3c(C)ccnc3C(C)C)c3nc(-c4c(O)cccc4F)c(F)cc23)C(C)C1` (stereo unspecified) + Nc1ccc(C#CCN(C(=O)Cc2ncc(C(F)(F)F)cc2C(F)(F)F)c2ccc(F)cc2)nn1, the viability, T/C was 102%.
Same read-out and setting: the value for `CC(C)n1c(=O)n(C)c2cnc3cc(F)c(-c4ccc(OCCCN5CCCCC5)nc4)cc3c21` + Nc1ccc(C#CCN(C(=O)Cc2ncc(C(F)(F)F)cc2C(F)(F)F)c2ccc(F)cc2)nn1 was 102%; that for `CCc1cc2c(N3CCc4c(cc(Cn5ccnc5)cc4-c4cn(C)nc4C(F)(F)F)C3=O)cc(C)nc2c(OC)n1` + Nc1ccc(C#CCN(C(=O)Cc2ncc(C(F)(F)F)cc2C(F)(F)F)c2ccc(F)cc2)nn1 was 112%; that for `CCc1cc2c(N3CCc4c(cc(Cn5ccnc5)cc4-c4cn(C)nc4C(F)(F)F)C3=O)ccnc2c(OC)n1` + Nc1ccc(C#CCN(C(=O)Cc2ncc(C(F)(F)F)cc2C(F)(F)F)c2ccc(F)cc2)nn1 was 116%.
`COc1cc2cc(C(=O)CCC(=O)O)sc2cc1OC` + Nc1ccc(C#CCN(C(=O)Cc2ncc(C(F)(F)F)cc2C(F)(F)F)c2ccc(F)cc2)nn1: the viability, T/C was 109%.

Staying with this assay, now noted: second compound 1 µM; first compound 0.1 µM; active compounds read low.
For the compound `C=CC(=O)N1CCN(c2nc(=O)n(-c3c(C)ccnc3C(C)C)c3nc(-c4c(O)cccc4F)c(F)cc23)C(C)C1` (stereo unspecified) + Nc1ccc(C#CCN(C(=O)Cc2ncc(C(F)(F)F)cc2C(F)(F)F)c2ccc(F)cc2)nn1, the viability, T/C was 95.2%.
On to `CC(C)n1c(=O)n(C)c2cnc3cc(F)c(-c4ccc(OCCCN5CCCCC5)nc4)cc3c21` + Nc1ccc(C#CCN(C(=O)Cc2ncc(C(F)(F)F)cc2C(F)(F)F)c2ccc(F)cc2)nn1, for which the viability, T/C was 98.9%.
On to `CCc1cc2c(N3CCc4c(cc(Cn5ccnc5)cc4-c4cn(C)nc4C(F)(F)F)C3=O)cc(C)nc2c(OC)n1` + Nc1ccc(C#CCN(C(=O)Cc2ncc(C(F)(F)F)cc2C(F)(F)F)c2ccc(F)cc2)nn1, for which the viability, T/C is 95.8%.
`CCc1cc2c(N3CCc4c(cc(Cn5ccnc5)cc4-c4cn(C)nc4C(F)(F)F)C3=O)ccnc2c(OC)n1` + Nc1ccc(C#CCN(C(=O)Cc2ncc(C(F)(F)F)cc2C(F)(F)F)c2ccc(F)cc2)nn1: the viability, T/C was 95.1%.
In the case of `COc1cc2cc(C(=O)CCC(=O)O)sc2cc1OC` + Nc1ccc(C#CCN(C(=O)Cc2ncc(C(F)(F)F)cc2C(F)(F)F)c2ccc(F)cc2)nn1, the viability, T/C is 100%.

Still in this assay, the particulars now being: second compound 1 µM; first compound 0.316 µM; active compounds read low.
For the compound `C=CC(=O)N1CCN(c2nc(=O)n(-c3c(C)ccnc3C(C)C)c3nc(-c4c(O)cccc4F)c(F)cc23)C(C)C1` (stereo unspecified) + Nc1ccc(C#CCN(C(=O)Cc2ncc(C(F)(F)F)cc2C(F)(F)F)c2ccc(F)cc2)nn1, the viability, T/C is 97.9%.

The record behind these values is PubChem BioAssay AID1963840 (Molecular Pharmacology Branch, DTP, NCI, 2024).
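Note: spheroids exposed to compounds for seven days; 100% = DMSO vehicle control viability.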
